Values of other authors as cited in patent publication US9155707B2, “Core-shell microspheres” (Agency for Science, Technology and Research, priority 2011, dated 2015).

How the values were obtained:
[1] = reference line in FIG. 10

Compound	solubility in water	toxic limit of drug permissible in the blood plasma [1] [ng/mL]
O=S1(=O)OC(c2ccc(O)c(Cl)c2)(c2ccc(O)c(Cl)c2)c2ccccc21 [chlorophenol red (CR), chlorophenol red]	not very soluble in water	–
O=c1[nH]cc(F)c(=O)[nH]1 [Fluorouracil (5-FU), Fluorouracil]	not in water	–
CCCCN1CCCCC1C(=O)Nc1c(C)cccc1C (stereo not drawn) [Bupivacaine, bupivacaine]	–	4000
